Laboratory results reported in patent US20040014639A1, “Product and method for control of obesity” (priority 2000, published 2004).
“Also recorded” adds a separate entry of the source. Blank lines part the entries; values can stand above or below the molecule they belong to.

Tests used:
3T3-F442 cells = test: in vitro lipolysis (glycerol release), 1 hour incubation; format: cell-based, mouse; details: for shape of lipolytic dose response: 1 hour, varying concentrations, agent alone
Description: Referring now to FIG. 1, 3T3-F442 cells (an immortal mouse adipocyte cell line) were incubated for 1 hour with varying concentrations of the rodent beta 3 agonist BRL 37344. […] In a third sample, AOD 9604 and BRL 37344 were co-administered with varying concentrations of AOD 9604, together with the maximal concentration of 1 μM of the BRL 37344.

adipocytes = test: sensitisation of adipocytes to beta 3 agonist: 4 hour pre-incubation, then BRL 37344 for a further hour, lipolysis; format: cell-based, mouse; details: for lipolytic effect of the beta 3 agonist after pre-incubation: 4 hour pre-incubation at varying concentrations, then 50 nanomolar BRL 37344 for a further hour
Description: Referring now to FIG. 2, an experiment was performed to determine whether hGH (FIG. 2A) or AOD 9604 (FIG. 2B) sensitises the adipocytes to the actions of the beta 3 agonists. First, the adipocytes were incubated with hGH or AOD 9604 at varying concentrations for four hours. The cells were then further incubated with a half-maximal concentration of BRL 37344 of 50 nanomolar for a further hour.

C57Bl/6J (Ob/Ob) mouse = details: by injection; cited from earlier work
beta 3 messenger RNA [1] = test: beta 3 messenger RNA expression after chronic treatment of ob/ob mice; format: in vivo; details: versus control ob/ob mice
ob/ob mice = test: fat mass after chronic treatment of ob/ob mice; format: in vivo
Description: It is believed that the obesity reducing effect of AOD9604 is at least in part a result of this sensitisation to the lipolytic affects of endogenous catecholamines (ie. epinephrine). Accordingly, chronic co-administration of AOD9604 and a beta 3 agonist will enhance the anti-obesity action of either agent administered alone.

beta 3 messenger RNA [2] = test: beta 3 messenger RNA expression in adipocytes after four-hour incubation (PCR/RT-PCR, normalised to β-actin); format: cell-based, mouse; details: 4 hour incubation
Description: Referring now to FIG. 3, the effect of the four-hour incubation of the adipocytes with hGH (FIG. 3A) or AOD 9604 (FIG. 3B) at two concentrations on expression of beta 3 messenger RNA was assessed using PCR/RT-PCR analysis of the content of beta 3 messenger RNA, using β-actin to normalise the data.

[3] = biological target: beta 3 adrenergic receptor (Mus musculus, UniProt P25962); test: agonism at the beta 3 adrenergic receptor
Sequence of beta 3 adrenergic receptor (P25962 whole entry): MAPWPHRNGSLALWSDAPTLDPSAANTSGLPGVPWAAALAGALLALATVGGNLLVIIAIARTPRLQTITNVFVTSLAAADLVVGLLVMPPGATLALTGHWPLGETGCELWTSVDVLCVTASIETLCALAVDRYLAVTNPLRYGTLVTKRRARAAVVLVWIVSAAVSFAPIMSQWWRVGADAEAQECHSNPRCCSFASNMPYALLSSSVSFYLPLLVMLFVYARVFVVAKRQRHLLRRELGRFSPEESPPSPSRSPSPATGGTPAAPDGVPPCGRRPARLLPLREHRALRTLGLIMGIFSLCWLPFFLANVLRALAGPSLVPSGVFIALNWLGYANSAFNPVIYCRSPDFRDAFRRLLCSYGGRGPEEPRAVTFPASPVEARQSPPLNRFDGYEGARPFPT

Molecule: C[C@H](Cc1ccc(OCC(=O)O)cc1)NC[C@H](O)c1cccc(Cl)c1 [BRL 37344]
- concentration giving maximal lipolytic effect (3T3-F442 cells; 1 hour incubation): 1 µM
- maximal effect, glycerol released (3T3-F442 cells; 1 hour incubation, at 1 μM): approximately 6 μM per milligram protein
- shape of lipolytic dose response (3T3-F442 cells): sigmoid-shaped dose response
- EC50 (adipocytes; adipocytes, read-out: half-maximal concentration (lipolysis)): 50 nM

Molecule: hGH 177-191: synthetic peptide corresponding to amino acid residues 177-191 of the human growth hormone sequence (LRIVQCRSVEGSCGF; UniProt P01241 203-217, looked up, fragment)
- adipose tissue mass (C57Bl/6J (Ob/Ob) mouse): reduce
- body weight gain (C57Bl/6J (Ob/Ob) mouse): reduce

Molecule: hGH: human growth hormone
- lipolytic effect of the beta 3 agonist after pre-incubation (adipocytes): synergistic effect; also recorded: enhanced
- beta 3 messenger RNA in brown adipocytes (beta 3 messenger RNA [1]; 1.0 mg/kg/day for 14 days): increase
- beta 3 messenger RNA in white adipocytes (beta 3 messenger RNA [1]; 1.0 mg/kg/day for 14 days): increase

- agonist activity at the beta 3 adrenergic receptor [3]: not an agonist
Molecule: Tyr-hGH 177-191 [AOD9604]
- fat mass of the treated animals (ob/ob mice): significant reduction
- expression of beta 3 messenger RNA (beta 3 messenger RNA [2]): increase
- shape of lipolytic dose response (3T3-F442 cells): bell-shaped acute lipolytic response
- lipolytic effect of the beta 3 agonist after pre-incubation (adipocytes): synergistic effect; also recorded: enhanced
- beta 3 messenger RNA in brown adipocytes (beta 3 messenger RNA [1]; 0.25 mg/kg/day for 14 days): increase
- beta 3 messenger RNA in white adipocytes (beta 3 messenger RNA [1]; 0.25 mg/kg/day for 14 days): increase
